Results on 1 compound are retold here after PMC5908784, “Extracellular loops 2 and 3 of the calcitonin receptor selectively modify agonist binding and efficacy” (Biochemical Pharmacology, 2018).

Assay in all cases: ERK1/2 phosphorylation
Format in all cases: cell-based
Details in all cases: pERK maximal response, CV1-FlpIn cells, mean ± S.E.M.

In experiment [1] the target is T1, hCTR T295A (Homo sapiens, UniProt P30988, T295A).
T1 construct: c-Myc (N); expressed in transfected cells
T1 sequence (P30988 25-474 T295A): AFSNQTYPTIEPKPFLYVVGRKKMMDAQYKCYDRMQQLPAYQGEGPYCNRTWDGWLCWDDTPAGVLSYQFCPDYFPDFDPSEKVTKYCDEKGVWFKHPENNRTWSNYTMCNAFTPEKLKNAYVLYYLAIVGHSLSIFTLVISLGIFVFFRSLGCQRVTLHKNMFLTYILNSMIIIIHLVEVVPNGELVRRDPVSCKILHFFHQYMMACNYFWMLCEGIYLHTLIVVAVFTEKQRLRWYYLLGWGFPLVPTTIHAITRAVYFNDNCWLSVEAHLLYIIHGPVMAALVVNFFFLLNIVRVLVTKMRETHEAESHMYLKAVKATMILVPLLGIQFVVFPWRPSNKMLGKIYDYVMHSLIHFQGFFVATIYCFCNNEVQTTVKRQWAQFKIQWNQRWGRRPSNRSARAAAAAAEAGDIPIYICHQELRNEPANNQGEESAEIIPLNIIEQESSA
The essentials:
(§1)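 EC50 and Emax values derive from three-parameter logistic curves and combine functional affinity, efficacy and stimulus-response coupling. Responses are normalized to 10% FBS (6 min).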

Experiment [2] deals with T2, hCTR V358A (Homo sapiens, UniProt P30988, V358A).
T2 construct: c-Myc (N); expressed in transfected cells
T2 sequence (P30988 25-474 V358A): T1 sequence (P30988 25-474 T295A) with A271T, V334A
In outline: as §1

In experiment [3] the target is T3, hCTR L297A (Homo sapiens, UniProt P30988, L297A).
T3 construct: c-Myc (N); expressed in transfected cells
T3 sequence (P30988 25-474 L297A): T1 sequence (P30988 25-474 T295A) with A271T, L273A
The essentials:
as §1

Experiment [4] concerns the target T4, hCTR N286A (Homo sapiens, UniProt P30988, N286A).
T4 construct: c-Myc (N); expressed in transfected cells
T4 sequence (P30988 25-474 N286A): T1 sequence (P30988 25-474 T295A) with N262A, A271T
The essentials: as §1

Experiment [5] addresses T5, hCTR Y284A (Homo sapiens, UniProt P30988, Y284A).
T5 construct: expressed in transfected cells
T5 sequence (P30988 25-474 Y284A): T1 sequence (P30988 25-474 T295A) with Y260A, A271T
The essentials:
as §1

Molecules are shown by their SMILES. Residue numbers refer to the chain shown, from its start.

The Emax is the greatest response seen or fitted, relative to the assay's reference. As to `CC(C)C[C@H](NC(=O)[C@H](CCCCN)NC(=O)CNC(=O)[C@H](CC(C)C)NC(=O)[C@@H](NC(=O)[C@@H]1CSSC[C@H](N)C(=O)N[C@@H](CO)C(=O)N[C@@H](CC(N)=O)C(=O)N[C@@H](CC(C)C)C(=O)N[C@@H](CO)C(=O)N[C@@H]([C@@H](C)O)C(=O)N1)C(C)C)C(=O)N[C@@H](CO)C(=O)N[C@@H](CCC(N)=O)C(=O)N[C@@H](CCC(=O)O)C(=O)N[C@@H](CC(C)C)C(=O)N[C@@H](Cc1c[nH]cn1)C(=O)N[C@@H](CCCCN)C(=O)N[C@@H](CC(C)C)C(=O)N[C@@H](CCC(N)=O)C(=O)N[C@H](C(=O)N[C@@H](Cc1ccc(O)cc1)C(=O)N1CCC[C@H]1C(=O)N[C@@H](CCCNC(=N)N)C(=O)N[C@H](C(=O)N[C@@H](CC(N)=O)C(=O)N[C@H](C(=O)NCC(=O)N[C@@H](CO)C(=O)NCC(=O)N[C@H](C(=O)N1CCC[C@H]1C(N)=O)[C@@H](C)O)[C@@H](C)O)[C@@H](C)O)[C@@H](C)O` [sCT], the Emax in experiment [1] came to 49 ± 4%; in experiment [2], 150 ± 8%; in experiment [3], 68 ± 4%; in experiment [4] it was 59 ± 5%; in experiment [5], 96 ± 6%.
